Assay results published in patent publication US7528124B2, “1,3-dihydro-2H-indol-2-one derivative” (Taisho Pharmaceutical Co., Ltd., priority 2003, dated 2009).
Where two headings read alike, the source gives them in different places.

Assay: Measurement of drug concentration in plasma and brain following oral administration to rats (LC/MS/MS)
Type: in vivo, Sprague-Dawley rats
Details: rat; for concentration at 1 h: Table 2, 1 hour after administration
Procedure: Measurement of Drug Concentration in Plasma and Brain following Oral Administration to Rats
The compound of Example 1 and compound A (WO01/55130, listed in EXEMPLE 1) were orally administered to Sprague-Dawley rats (male, 8 weeks) at a dose of 5 mL/kg (10 mg/kg) as solutions (each compound was dissolved with 0.03 mol/L HCl containing 5% Cremophor EL, and concentration was prepared by 2 mg/ml).
Blood was collected from the tail vein at 1 and 2 hours after administration. Immediately the brain was excised, 20% homogenate was prepared with distilled water, for assay sample. Similarly, 0.3 mL of blood was collected from the tail vein at 2, 4, 8, and 24 hours following administration, and the plasma following centrifugation was used as a sample.
The concentrations of the compound of Example 1 and compound A in plasma were measured using liquid chromatography tandem mass spectrometry (LC/MS/MS). Specifically, 200 μL of acetonitrile was added to 50 μL of plasma or brain homogenate, vortex mixed and centrifuged. The resulting supernatant was put in a liquid chromatograph with an Agilent Zorbax SB-C18 5 μm column (50 mm long, 2.1 mm in diameter). The elute was 0.1% acetic acid/acetonitrile containing 0.1% acetic acid. The MS/MS detection were performed using a Sciex API3000 LC/MS/MS system with ESI for ionization, in positive ions and MRM mode for monitoring. The m/z 632→472 and m/z 630→472 were monitored for the compound of Example 1 and compound A, respectively.
The concentration of plasma and brain at each sampling point and mean plasma levels after oral administration were shown in Table 2 and Table 3, respectively.

## COc1ccc(S(=O)(=O)N2C(=O)C(c3ccccc3OC)(N3C[C@H](F)C[C@H]3C(=O)N(C)C)c3cc(Cl)ccc32)c(OC)c1 (single isomer, unassigned) [Example 1]
male, Sprague-Dawley, brain, po, 10 mg/kg, brain homogenate, average of three, read-out: Drug concentration, brain, 1 hour
  concentration at 1 h: 35 ng/g
male, Sprague-Dawley, plasma, po, 10 mg/kg, average of three, read-out: Drug concentration, plasma, 1 hour
  concentration at 1 h: 440 ng/mL
male, Sprague-Dawley, plasma, po, 10 mg/kg, Table 2, 2 hours after administration, average of three, read-out: Drug concentration, plasma, 2 hours
  concentration at 2 h: 219 ng/mL
male, Sprague-Dawley, plasma, po, 10 mg/kg, Table 3, serial tail vein sampling, 2 hours, average of three, read-out: Drug concentration in plasma, 2 hours
  concentration at 2 h: 139 ng/mL
male, Sprague-Dawley, plasma, po, 10 mg/kg, Table 3, serial tail vein sampling, 4 hours, average of three
  concentration at 4 h: 51 ng/mL
male, Sprague-Dawley, plasma, po, 10 mg/kg, Table 3, serial tail vein sampling, 8 hours, average of three
  concentration at 8 h: 10 ng/mL
male, Sprague-Dawley, Table 2, oral 10 mg/kg, 2 hours after administration, brain homogenate, average of three, ND: below the quantification detection limit of 5 ng/mL, read-out: Drug concentration, brain, 2 hours
  concentration at 2 h: 11 ng/g
Oral 10 mg/kg, after 2 hours
  plasma levels compared with compound A: higher plasma levels
Oral 10 mg/kg, at 1 and 2 hours
  brain levels compared with compound A: higher than those of compound A
